From patent US20200277571A1, “METHOD FOR AMPLIFYING CONE PHOTORECEPTORS OR ROD PHOTORECEPTORS USING DORSALIZATION SIGNAL TRANSMITTER OR VENTRALIZATION SIGNAL TRANSMITTER” (RIKEN, priority 2017, published 2020) come the findings set out here.

The subject of one test is ALDH1A1 gene. Briefly: Quantitative PCR of ALDH1A1 gene expression in retinal tissue. In kind it is cell-based, human. The procedure:
[1] Control group (FIG. 2a, f, k, p); according to the method described in Example 1, culture was performed up to day 70 or day 75 from the start of suspension culture and without addition. [2]+BMP group (FIG. 2b, g, 1, q); 0.15 nM BMP4 was added from day 22 from the start of suspension culture to completion of suspension culture, and cultured up to day 70 or day 75 from the start of suspension culture. [3]+Cyclopamine-KAAD group (FIG. 2c, h, m, r); 500 nM Cyclopamine-KAAD was added from day 22 from the start of suspension culture to completion of the suspension culture, and cultured up to day 70 or day 75 from the start of suspension culture. [4]+LDN193189 group (FIG. 2d, i, n, s); 100 nM LDN193189 was added from day 22 from the start of suspension culture to completion of the suspension culture, and cultured up to day 70 or day 75 from the start of suspension culture. [5]+SAG group (FIG. 2e, j, o, t); 100 nM SAG was added from day 22 from the start of suspension culture to completion of the suspension culture, and cultured up to day 70 or day 75 from the start of suspension culture.
The expression level of ALDH1A1 gene was analyzed by quantitative PCR using the same cDNA as that used in Example 7. As a result, similar to that observed by immunostaining, the expression level of ALDH1A1 gene was promoted in +BMP4 group as compared to the Control (NUC) group on about day 40 from the start of suspension culture (FIG. 8-2, black bar (d40) in graph). […]
After extracting RNA from retinal tissue prepared in this way, cDNA was synthesized and the expression level of ALDH1A1 gene was analyzed by quantitative PCR. […] Furthermore, a retinal tissue prepared using 1.35 nM BMP4 was fixed with 4% para-formaldehyde, cryosections were prepared, and immunostaining using an antibody against GFP (fluorescence of GFP variant incorporated in CRX gene locus can be identified. That is, cells similar to CRX-positive cell can be identified), ALDH1A1, or DAPI staining for staining the nucleus was performed. […]

The subject of test [1] is S-opsin, M-opsin, L-opsin. Description: Quantitative PCR of S-opsin, M-opsin, L-opsin after maturation culture in serum-free medium. In kind it is cell-based, human. The settings on record: BMP4 (0-1.35 nM) added in combination with T3 (0-8 nM) in serum-free DMEM/F12 after about day 190, not less than 30 days. The procedure: By a method similar to the methods described in Example 1 and Example 3, a cell aggregate containing a retinal tissue in a differentiation stage matured to the level that Muller cell was observed was prepared and culture was performed, in the serum-containing medium used, up to about day 190 to give a retinal tissue in a differentiation stage matured to the level that Muller cell was observed. Thereafter, by a method similar to the methods described in Example 11 and 12, further maturation was performed. That is, 0-1.35 nM BMP4 and 0-8 nM T3 were added to a medium obtained by adding 1% N2 supplement and 100 μM taurine but not adding 10% fetal calf serum to DMEM/F12 medium containing glutamic acid as a component, and culture was performed for not less than 30 days from the start of culture for further maturation. A cell aggregate containing a retinal tissue was recovered, quantitatively PCR was performed according to a conventional method, and the expression levels of S-opsin, M-opsin, L-opsin were confirmed. As a result, irrespective of the presence or absence of BMP4, the expression of S-opsin was promoted when T3 was absent.

For “BMP4: BMP protein; BMP signal transduction pathway agonist used as dorsalization signal transmitter”, the ALDH1A1 gene expression entry in the test with ALDH1A1 gene (1.35 nM BMP4 from day 22, day 70-75) is “significantly increased”; in the test with ALDH1A1 gene (about day 70 (versus about day 40), 0.15 nM BMP4 from day 22), “tendency of decrease”. Further, the “expression level of ALDH1A1 gene versus Control (NUC) group” value in the test with ALDH1A1 gene (about day 40, 0.15 nM BMP4 from day 22) is on record as “promoted”. Besides, in test [1], the “expression of L and M-opsin” value is “promoted”.
